Data published in patent US20140170210A1, “METHODS FOR TREATING IMMUNOSUPPRESSION” (TRUSTEES OF DARTMOUTH COLLEGE, priority 2011, published 2014).
Read-outs that look alike come from different tables or passages of the source.

Tests used:
human macrophages = details: in vitro; cited from earlier work
coronary atherosclerosis = details: in combination with a statin drug, patients; cited from earlier work
[1] = test system: cholesterol ester content in various systemic tissues; details: 4-30 mg/kg/day, small animals; cited from earlier work
[2] = rats, dogs, and humans; cited from earlier work
[3] = test system: amyloid plaque load and cognitive deficits; details: cited from earlier work
ACAT1 [4] = target: T1, ACAT1 (Homo sapiens, UniProt P35610); details: cited from earlier work
T1 sequence (P35610 1-550): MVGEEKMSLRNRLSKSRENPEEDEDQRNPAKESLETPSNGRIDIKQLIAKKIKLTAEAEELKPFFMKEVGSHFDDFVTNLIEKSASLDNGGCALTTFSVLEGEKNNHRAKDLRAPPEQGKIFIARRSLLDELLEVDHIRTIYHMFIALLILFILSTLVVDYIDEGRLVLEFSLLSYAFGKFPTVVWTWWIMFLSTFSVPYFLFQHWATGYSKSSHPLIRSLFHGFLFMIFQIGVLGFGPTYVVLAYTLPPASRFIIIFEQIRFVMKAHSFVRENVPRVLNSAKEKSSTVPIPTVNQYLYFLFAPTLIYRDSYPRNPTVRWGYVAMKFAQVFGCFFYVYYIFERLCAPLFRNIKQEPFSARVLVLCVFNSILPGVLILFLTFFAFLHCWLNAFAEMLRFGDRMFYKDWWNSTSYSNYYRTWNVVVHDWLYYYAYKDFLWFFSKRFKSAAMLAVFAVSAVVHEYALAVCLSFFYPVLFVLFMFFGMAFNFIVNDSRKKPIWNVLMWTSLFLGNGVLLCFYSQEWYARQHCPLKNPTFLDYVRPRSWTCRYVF

hACAT-2 [5] = target: T2, hACAT-2 (Homo sapiens, UniProt O75908); details: cited from earlier work
T2 sequence (O75908 1-522): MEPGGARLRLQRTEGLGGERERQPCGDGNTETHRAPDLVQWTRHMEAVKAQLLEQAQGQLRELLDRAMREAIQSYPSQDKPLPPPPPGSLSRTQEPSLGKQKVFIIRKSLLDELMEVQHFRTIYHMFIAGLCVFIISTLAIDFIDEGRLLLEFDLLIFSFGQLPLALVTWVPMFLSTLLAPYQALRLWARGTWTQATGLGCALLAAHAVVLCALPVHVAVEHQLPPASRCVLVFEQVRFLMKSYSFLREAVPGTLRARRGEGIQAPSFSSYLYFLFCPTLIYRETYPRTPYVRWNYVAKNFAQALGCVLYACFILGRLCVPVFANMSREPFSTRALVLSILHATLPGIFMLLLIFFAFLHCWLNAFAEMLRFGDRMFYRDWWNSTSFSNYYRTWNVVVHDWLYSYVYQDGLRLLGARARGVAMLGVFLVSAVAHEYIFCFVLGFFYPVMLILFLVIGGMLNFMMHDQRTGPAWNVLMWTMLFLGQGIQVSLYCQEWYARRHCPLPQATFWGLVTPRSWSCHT

[6] = laboratory animals; cited from earlier work
WT and Acat1-/- BM cells = experiment: Proliferation of cultured BM cells, 3H-thymidine pulse; format: cell-based, mouse; details: for effect on higher 3H-thymidine incorporation phenotype of Acat1-/- BM cells: 10 μM U0126, 1 μM PP2, 72 hours culture with growth factors
Experimental: WT and Acat1−/− BM cells were cultured in IMDM media containing 10% FBS in the presence of indicated growth factors with or without specific inhibitors as indicated for 72 hours. Concentrations of growth factors used: 100 ng/mL for stem cell factor, 6 ng/mL for IL3; 2 ng/ml for GM-CSF. Concentration of inhibitors used: 10 μM for U0126; 1 μM for PP2. Proliferation was measured after a 3 hour ^3H-thymidine pulse in intact cells. Results are means±SEM of duplicate cultures in 3 separate experiments. **P<0.01, * P<0.05 vs. WT.
For cell proliferation measurement in vivo, the manufacturer's protocol (BD Pharmingen; BrdU flow kit) was used. Age- and sex-matched mice of both genotypes were injected intraperitoneally twice, once every 12 hours, with 0.5 mg bromodeoxyuridine (BrdU)/injection/mouse. Twenty-four hours after the first injection, BM progenitor cells (LSKs, CMPs, GMPs, and MEPs) were stained and sorted as described earlier. Proliferation of each of the sorted cell populations was measured by measuring BrdU incorporation, using the BrdU flow kit (BD Pharmingen). Proliferation measurement of BM derived-myeloid cells in culture was carried out using a known method (Yvan-Charvet et al. 2010. supra). Briefly, after lysis of red blood cells from crude BM, cells were cultured in IMDM (Gibco) containing 10% fetal bovine serum (FBS) for 2 hours to remove attached cells. The unattached cells were replated for 72 hours in various conditions as described in FIG. 4. Stem cell factor, IL3, and GM-CSF were from R&D Systems. U0126, PP2, and ApoA1 were from Sigma. Squalene synthase inhibitor (SSI) compound CP-340868 was from Pfizer. Cells were pulsed with 2 μCi/mL ^3H-thymidine for 3 hours and ^3H-thymidine incorporation was monitored by using liquid scintillation counter.

ACAT1 and ACAT2 = details: cited from earlier work
[7] = test system: atherosclerosis, familial hypercholesterolemia; details: patients with high risk for atherosclerosis or familial hypercholesterolemia; cited from earlier work
ACAT1 [8] = target: T1, ACAT1; details: cited from earlier work; remark: listed apart in the source
hACAT-2 [9] = target: T2, hACAT-2; details: cited from earlier work; remark: listed apart in the source
ACAT2 = target: T3, ACAT2 (Chlorocebus aethiops, UniProt O77759); details: read-out: selective inhibition, ACAT2; cited from earlier work
T3 sequence (O77759 1-526): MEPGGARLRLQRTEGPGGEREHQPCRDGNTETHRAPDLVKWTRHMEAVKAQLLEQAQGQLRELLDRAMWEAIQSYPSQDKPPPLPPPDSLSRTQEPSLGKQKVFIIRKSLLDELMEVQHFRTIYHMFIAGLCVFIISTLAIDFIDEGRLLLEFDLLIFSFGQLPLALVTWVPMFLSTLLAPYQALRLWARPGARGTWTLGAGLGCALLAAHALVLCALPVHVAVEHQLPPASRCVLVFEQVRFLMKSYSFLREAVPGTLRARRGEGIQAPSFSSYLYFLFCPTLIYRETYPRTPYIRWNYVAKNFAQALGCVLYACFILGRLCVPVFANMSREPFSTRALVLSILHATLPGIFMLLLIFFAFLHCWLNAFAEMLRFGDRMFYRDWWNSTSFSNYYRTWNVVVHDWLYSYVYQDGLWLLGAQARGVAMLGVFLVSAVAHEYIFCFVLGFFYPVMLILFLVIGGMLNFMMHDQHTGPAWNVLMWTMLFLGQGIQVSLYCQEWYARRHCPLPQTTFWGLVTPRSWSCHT

ACAT1 [10] = target: T1, ACAT1; details: cited from earlier work; remark: listed apart in the source
mouse ACAT1 = experiment: ACAT1 knockdown by Acat1 miRs in NIH-3T3 mouse fibroblasts; format: cell-based; details: pre-microRNAs SEQ ID NO:5 and 6
Text: Four different siRNA sequences (#52-#55) targeting the mouse Acat1 (also called Soat1) gene were inserted into an endogenous mouse microRNA (miR) scaffold using Invitrogen's RNAi design tool. The artificial miRs were ligated into the mammalian expression vector pcDNA6.2-GW/EmGFP-miR. […] The miRs were delivered to the cells by using standard cDNA transfection protocol. […] These two Acat1 miR sequences and the NC miR sequence were also subcloned into an rAAV backbone vector (AAV-6P-SEWB) that contained the […]. This vector contains a strong and cell-type-nonspecific promoter that expresses Acat1 miRs in any cell type where the viral genome is expressed. For identification purpose, it also coexpresses the GFP with the miRs. These three constructs were used to produce three recombinant AAV viruses. To test the efficacy and specificity of these viruses, cultured primary hippocampal neurons were treated with the NC AAV, or with AAV that expresses miR that contain siRNA Acat1 #55. Two weeks after viral infection, the effects of AAVs on cholesteryl ester biosynthesis in neurons were tested. […] One month after injection, mice were sacrificed and the ACAT1 enzyme activities in the mouse brain homogenates were analyzed by using standard ACAT enzyme activity assay in vitro.

[11] = mouse model for Alzheimer disease

## CC(C)c1cc(C(C)C)c(CC(=O)NS(=O)(=O)Oc2c(C(C)C)cccc2C(C)C)c(C(C)C)c1 [Avasimibe]
Human macrophages
  foam cell formation in macrophages: reduces foam cell formation
Coronary atherosclerosis
  efficacy to further reduce progression of coronary atherosclerosis: failed to demonstrate efficacy
[1]
  reducing cholesterol ester content in various systemic tissues: effective
[2]
  safety when administered: safe
[3]; 14.4 mg/kg/day
  activity in a mouse model for Alzheimer's disease: beneficial activity
[3]; [11]
  amyloid plaque load: significant decreases
  cognitive deficits: reduction in cognitive deficits
ACAT1 [4]
  IC50: 18.7 µM
hACAT-2 [5]
  IC50: 19.1 µM

## CSc1cc(C)nc(SC)c1NC(=O)CN1CCN(CCSc2nc3ccccc3[nH]2)CC1 [K-604]
[6]
  safety for use in vivo: safe

## CC(C)(C)n1nc(-c2ccc(Cl)cc2)c2c(N)ncnc21 [PP2]
WT and Acat1-/- BM cells
  effect on higher 3H-thymidine incorporation phenotype of Acat1-/- BM cells: partially alleviated

## CCCCCCCCN1CCc2c(C)c(CC(=O)O)c(C)c(NC(=O)C(C)(C)C)c21 [Pactimibe]
ACAT1 and ACAT2
  relative potency on ACAT1 and ACAT2: approximately equal potency
[7]
  efficacy as a supplement to statin treatment: lacked efficacy

## N#CC(=C(/N)Sc1ccccc1N)/C(C#N)=C(\N)Sc1ccccc1N [U0126]
WT and Acat1-/- BM cells
  effect on higher 3H-thymidine incorporation phenotype of Acat1-/- BM cells: partially alleviated

## CCOC(=O)OC(=O)OCC [diethyl pyrocarbonate]
ACAT1 [8]
  greater activity on ACAT1 compared to ACAT-2: 4 fold

## COc1ccc([C@@H](O)[C@@H](C)Oc2ccc([C@H]3O[C@H](c4ccc(O[C@H](C)[C@H](O)c5ccc6c(c5)OCO6)c(OC)c4)[C@H](C)[C@H]3C)cc2OC)cc1OC [manassantin B]
hACAT-2 [9]; at 1 mM
  inhibition of hACAT-2: 32%

## ApoA1: a cellular cholesterol efflux mediator
WT and Acat1-/- BM cells; ApoA1 at 50 or 100 μg/ml
  effect on enhanced proliferation of Acat1-/- BM cells: did not diminish

## beauveriolide I
ACAT2
  IC50: 20 µM

## saucerneol B
hACAT-2 [9]
  IC50: 124 µM
ACAT1 [10]
  IC50: 43 µM

B1: #54: microRNA against mouse ACAT1, target sequence SEQ ID NO:3; pre-microRNA SEQ ID NO:5 (nucleic acid)
chain: TGCTGTCCAGTATCAGAATGAACCGGGTTTTGGCCACTGACTGACCCGGTTCACTGATACTGGA
modifications: expressed or natural sequence
Mouse ACAT1
  mouse ACAT1 expression: decrease

B2: #55: microRNA against mouse ACAT1, target sequence SEQ ID NO:4; pre-microRNA SEQ ID NO:6 (nucleic acid)
chain: TGCTGTACAGTAGGAGTCCTTGGGTAGTTTTGGCCACTGACTGACTACCCAAGCTCCTACTGTA
modifications: expressed or natural sequence
Mouse ACAT1
  mouse ACAT1 expression: decrease
